Data set [1] is described as follows: Analytical RP-HPLC retention time, read as hydrophobicity/hydrophilicity. The class given is physicochemical. As to conditions: C18 (Phenomenex Aeris Peptide C18 150 x 4.6 mm, 0.8 ml/min), 0.1% TFA water/acetonitrile, 0-60% B over 30 min, 214 nm, Supplementary S2-S9. Here is the method: Purification of all (glyco)peptides and their corresponding analyses were performed on a 1,260 Agilent Infinity system. The analytical RP-HPLC method uses a Phenomenex Aeris Peptide C18 column (150 mm × 4.6 mm, 3.6 μm, 100 Å) at 0.8 ml/min flow rate or a Vydac Denali C18 column (250 mm × 4.6 mm, 5 μm, 120Å) at 1 ml/min flow rate, with 0.1% TFA in water (A) and 0.1% TFA in acetonitrile (B) as the eluents. The elution gradient for analytical RP-HPLC purification was 0–60% B over 30 min. The preparative RP-HPLC method uses the Grace Vydac monomeric C18 column (250 mm × 22 mm, 15–20 μm, 300Å) at 10 ml/min flow rate, with 0.1% TFA in water (A) and 0.1% TFA in acetonitrile (B) as the eluents. The elution gradient for preparative RP-HPLC purification was 0–50% over 110 min. The (glyco)peptides were detected at 214 nm by using a UV-Vis detector (Agilent 1,260 Infinity DAD). Purified (glyco)peptides were characterized by matrix-assisted laser desorption ionization time-of-flight mass spectrometry (MALDI-TOF MS) with a Voyager-DE STR system or a Bruker Microflex system, using α-cyano-4-hydroxycinnamic acid as matrix.
Automated solid-phase peptide synthesis (SPPS) approach on Tentagel S RAM resin was used to assemble the APP (glyco)peptides. […]

Data set [2] can be described thus: CD spectroscopy, secondary structure content by BeStSel. To be noted: CD, BeStSel, 0.065 mg/ml, 25°C. The class given is physicochemical. Here is the method:
All (glyco)peptides were analyzed for their secondary structure using circular dichroism (CD) spectroscopy on a Jasco-810 spectropolarimeter (Jasco, Easton, MD) in three solvent systems: water, 10 mM sodium phosphate buffer (pH 7.4), and 50% trifluoroethanol (TFE) in water (v/v) mixture. The CD spectra were recorded using a quartz cell of 1 mm optical path length over a wavelength range of […] with a scanning speed of 100 nm/min and a response time of 4 s at 25°C. A concentration of 0.065 mg/ml, determined using the analytical RP-HPLC method, gave the […] signal-to-noise ratio for all (glyco)peptides. All spectra were baseline-corrected to account for the signal contribution from solvent and then converted into molar ellipticity (deg cm^2 dmol^−1) ([Sreerama and Woody, 2000]). Lastly, the percentages of all secondary structures were determined using the BeStSel method ([Micsonai et al., 2018]; [Singh et al., 2021]).
To study the role of O-glycosylation on the conformation of APP glycopeptides, circular dichroism (CD) spectroscopy was used to probe the secondary structure in three different solvents, water, sodium phosphate buffer (10 mM, pH 7.4), and 50% trifluoroethanol (TFE) in water (v/v) (Figure 1). The spectra were further analysed for secondary structure estimations by Beta Structure Selection (BeStSel) method, specifically designed for the analysis of beta sheet-rich proteins (Table 2) ([Micsonai et al., 2015], [2018]).

Data set [3] concerns the target T1, Recombinant human BACE-1 (rhBACE-1) (Homo sapiens, UniProt P56817).
T1 construct: purchased R&D Systems #ES004 and #931-AS, respectively (so in the source)
Put plainly: Proteolytic cleavage of APP (glyco)peptides by BACE-1, RP-HPLC peak integration. Type of data set: biochemical. As to conditions: 100 μM substrate, 50 nM rhBACE-1, 0.1 M sodium acetate pH 4.0, 24 h, 37°C, dark; RP-HPLC peak integration at 214 nm, averaged from two injections, SD <5%. Here is the method:
All APP-based substrates were prepared as 10 mM stocks in DMSO. Before proteolysis, the activity of BACE-1 was verified by the reaction with the fluorogenic BACE-1substrate Mca-[…](Dnp)RR-NH2 ([Koike et al., 1999]) as per the manufacturer’s instructions. For the proteolysis assay, APP-based substrates were diluted in BACE-1 activity buffer (0.1 M sodium acetate, pH 4.0) to the final assay concentration of 100 μM. BACE-1 was diluted to 50 nM final concentration. Reactions were incubated for 24 h at 37°C in the dark. After the incubation period, the enzyme cleavage solutions containing APP-based substrates and BACE-1 were analyzed using the analytical RP-HPLC method on the Aeris C18 column with 0.1% TFA in water (A) and 0.1% TFA in acetonitrile (B) as eluents and 0–60% B as the elution gradient over 30 min with a flow rate of 0.8 ml/min, and detection at 214 nm or the Vydac Denali C18 column with 0.1% TFA in water (A) and 0.1% TFA in acetonitrile (B) as eluents and 0–60% B as the elution gradient over 30 min with a flow rate of 1 ml/min, and detection at 214 nm. The identity of intact and cleaved (N- and C-terminal) fragments of (glyco)peptides in the absence and presence of BACE-1 (β-secretase) was confirmed by MALDI-TOF and their percentages were evaluated by the integration of the RP-HPLC peaks (averaged from two injections).
Glycosylation can alter substrate recognition and impact enzyme activity in either a positive (enhancing) or negative (inhibiting) manner ([Goettig, 2016]; [Goth et al., 2018]). The mucin-type O-linked glycosylation of a protein may not only affect its conformation but also affect its transport and localization in the cell ([Matsuura et al., 1989]; [Chen et al., 2002]). Proteases are highly regulated by post-translational modifications and drive fate, localization, and activity of many proteins ([Bond, 2019]). Certain mutations can also affect the subcellular localization of the cleavage event by crucial proteases and mediate a different cellular mechanism for the protein ([Haass et al., 1995]). […] Therefore, similar enzyme cleavage assays with BACE-1 were set up to explore the effect of the Swedish mutation, length of the amino acid sequence, glycan position and valency on the proteolytic susceptibility of 3–12. BACE1 produced two fragments upon cleavage of (glyco)peptides, for which yields were determined after 24 h treatment. The yields of intact peptide and fragments were evaluated by the RP-HPLC peaks integration (Table 3, and the Supplementary Material S20–S32).
3. Enzyme cleavage assays with APP (glyco)peptides 3-12 by RP-HPLC and MALDI-TOF MS
For the BACE1 enzyme cleavage assay, APP-based (glyco)peptide substrates were diluted in BACE1 activity buffer and incubated with BACE1 for 24 h at 37 °C in the dark. After the incubation period, the enzyme cleavage solutions containing APP-based (glyco)peptide substrates and BACE1 were analyzed using analytical RP-HPLC.
RP-HPLC gradient on Phenomenex Aeris Peptide C18 column (150 x 4.6 mm, 3.6 µm, 100Å):
Eluents were 0.1% TFA in water (A) and 0.1% TFA in acetonitrile (B). The elution gradient was 0-60%B in 30 minutes with a flow rate of 0.8 mL/min. Detection was at λ = 214 nm.
S*/T*= Ser(-α-GalNAc) 1/Thr(-α-GalNAc) 2
(a) APP665-680, 3 in activity buffer
(b) APP665-680 (3) + BACE1 in activity buffer […]

The mark [4] stands for this setting: (B) 10 mM sodium phosphate buffer, pH 7.4.

T1 sequence (P56817 46-457 limits assumed): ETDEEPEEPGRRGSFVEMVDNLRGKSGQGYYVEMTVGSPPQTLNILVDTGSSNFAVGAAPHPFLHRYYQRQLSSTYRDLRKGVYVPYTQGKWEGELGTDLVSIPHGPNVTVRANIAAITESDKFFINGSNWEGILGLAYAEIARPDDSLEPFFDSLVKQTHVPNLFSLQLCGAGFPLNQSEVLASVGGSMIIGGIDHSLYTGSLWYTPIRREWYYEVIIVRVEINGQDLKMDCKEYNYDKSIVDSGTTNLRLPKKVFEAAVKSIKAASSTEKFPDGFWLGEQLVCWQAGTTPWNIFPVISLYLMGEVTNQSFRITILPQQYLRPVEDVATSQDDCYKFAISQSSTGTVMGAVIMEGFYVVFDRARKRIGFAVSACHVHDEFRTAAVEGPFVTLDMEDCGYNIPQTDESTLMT

For the substance “IKT*EEISEVKM∼DAEFRHDSG [compound 8, native APP 661-680 glycopeptide with O-GalNAc on Thr^663]”, the “RP-HPLC t R” value in data set [1] came to 14.4 min. Also, in data set [2] ((A) water), the “RC (%) random coil” value is on record as 87.4%, the “α-H (%) α-helix” value was determined as 1.4%, the “β-AP (%) anti-parallel β-sheet” value is reported as 5.4% and the “β-P (%) parallel β-sheet” value is reported as 0.0%. The “β-T (%) β-turn” value in data set [2] ((A) water) was 5.7%. Besides, in data set [2] (setting [4]), the “RC (%) random coil” value turned out to be 30.4%, the “α-H (%) α-helix” value is 8.8%, the “β-AP (%) anti-parallel β-sheet” value was 42.6% and the “β-P (%) parallel β-sheet” value is 0.0%. For the same substance, the “β-T (%) β-turn” value in data set [2] (setting [4]) is reported as 18.3%. In data set [2] ((C) TFE/water = 1:1 (v/v)), the “RC (%) random coil” value came out at 8.3%, the “α-H (%) α-helix” value came to 85.7%, the “β-AP (%) anti-parallel β-sheet” value is listed as 0.0% and the “β-P (%) parallel β-sheet” value is on record as 0.0%. Besides, in data set [2] ((C) TFE/water = 1:1 (v/v)), the “β-T (%) β-turn” value turned out to be 6.0%. For the same substance, in data set [3], the “BACE-1 activity, Cleaved (%)” value is on record as 8.46% and the “BACE-1 activity, Recovered (%)” value is given as 91.5%.

These data come from paper PMC9023740, “Mucin-Type O-Glycosylation Proximal to β-Secretase Cleavage Site Affects APP Processing and Aggregation Fate” (Frontiers in Chemistry, 2022).
